One experiment has as its system Artemia. Briefly: Toxicity to Artemia nauplii in ASTM sea water, 96 well plate serial dilution. Type of experiment: in vivo, Artemia salina. The settings on record: 24 Hours; highest dilution in which all of the nauplii are dead; 25 °C. As to the method: Tests were conducted to determine the toxicity of the marine antifouling agents of the invention to Artemia. Artemia are indicative of hard fouling organisms.
Substitute ocean water was prepared following ASTM Method D 1141-90. The water was sterilized by filtration through a 0.22 micron cellulose acetate membrane filter. San Francisco Bay Brand® Artemia salina cysts were purchased from a local aquarium supply store. The cysts were hatched in a 250 mL Erlenmeyer flask. The Artemia cysts (0.2 g) were weighed into a sterilized flask. One hundred mL of sterile ASTM sea water was added to the flask. The flask was placed on an orbital shaker set at approximately 150 rotations per minute and 28 °C. After 24 hours, the contents of the flask were poured into a separatory funnel. The egg shells were separated from the Artemia nauplii (larvae), as the shells floated to the top. The nauplii were returned to the flask for another 24 hours shaking. The inoculum was prepared by pouring the nauplii into a crystallizing dish 48 hours after the cysts were originally placed on the shaker. After the nauplii congregated, they were taken up in a sterile serological pipette and transferred into another crystallizing dish. […] The number of nauplii in 3 to 4 wells was counted under a microscope. […]
Plates were read under a low magnification microscope 24 and 48 hours after the nauplii were added to the plate. […]

The subject of experiment [1] is Amphora coffeaeformis var. perpusilla. Description: Toxicity to Amphora: growth inhibition by chlorophyll a concentration. It is filed as cell-based. The settings on record: 96 hours at 20 °C, % inhibition of the mean control; for EC 50: dose effective at preventing 50% growth; for EC 100: dose effective at preventing 100% growth. The procedure:
Tests were conducted to determine the toxicity of the marine antifouling agents of the invention to Amphora. Amphora are indicative of soft fouling organisms. Amphora coffeaeformis var. perpusilla was isolated from a natural biofilm and cultured axenically in Guillard's F2 medium. A log phase culture of Amphora was diluted with the F2 medium to give a chlorophyll a concentration of 0.25 µg/mL. Chlorophyll a was measured by passing a measured volume (FV) of cell culture through a 3 µm pore, 25 mm diameter cellulose nitrate filter. The filter plus trapped algal cells was transferred to a glass tube. A measured volume (SV) of DMSO solvent was added to the glass tube. The tubes were incubated for 1.5 hours in darkness. After incubation, the absorbance of the sample was read in a spectrophotometer at 630 and 664 nm against a DMSO/filter blank. The chlorophyll a concentration can be calculated using the following equation: Chlorophylla(µg/mL) = 11.47 x Abs664 - 0.4 x Abs630 x SV/FV [formula] Ten mL of the diluted culture was pipetted into glass tubes. Ten µL of marine antifouling agent or, in the case of controls, DMF was added to each glass tube. The tubes were incubated on an illuminated orbital shaker at 20 °C for 96 hours before the chlorophyll a concentration of each tube was measured Three replicates of each treatment were used. The effects of marine antifouling agents are calculated as % inhibition of the mean control. The EC 50 is the dose effective at preventing 50% growth. The EC 100 is the dose effective at preventing 100% growth.

Each structure is given as a SMILES string.

With `CCCCCCCC[N+](CC#CBr)(CCCCCCCC)CCCCCCCC.O=S(=O)([O-])c1ccccc1` [Compound 18, trioctyl-(3-bromopropargyl)ammonium benzenesulfonate], the “Artemia LC 100” value in the experiment with Artemia is <8 ppm.
Take `O=c1oc2ccccc2n1CC#CI` [Compound 146, 3-(3-iodopropargyl)-2-benzoxazolone]: in experiment [1], the “EC 50” value was determined as 3 ppm and the “EC 100” value stood at 20 ppm.
Take `CCCCCCCCCCCCCC[N+]1(CC#CI)CCCC1.Cc1ccc(S(=O)(=O)[O-])cc1` [Compound 36, 1-tetradecyl-1-(3-iodopropargyl)-pyrrolidinium 4-methylbenzenesulfonate]: in experiment [1], the “EC 50” value was 1.9 ppm and the “EC 100” value is on record as 5 ppm. In the experiment on Artemia, the “Artemia LC 100” value is on record as 1 ppm.
Consider `CC1(C)C(=O)N(Cc2ccccc2)C(=O)N1CC#CI` [Compound 138, 1-(3-iodopropargyl)-3-benzyl-5,5-dimethylhydantoin], for which, in experiment [1], the “EC 50” value came to 2.5 ppm and the “EC 100” value is 20 ppm.

The values above are taken from patent publication EP0835604A1, “Halopropargyl compounds as marine antifouling agents” (ROHM AND HAAS COMPANY, priority 1996, dated 1998).
